Where “and” joins values, the source holds several entries; their conditions need not be identical. Equal values may be shown once. Read-outs that look alike come from different tables or passages of the source.
Key:
CNS cholinergic receptor [1] = assay: Cholinergic receptor binding assay, tritiated oxotremorine M ligand; conditions: read-out: CNS Cholinergic Receptor Binding Assays Ki (nM) Oxotremorine
CNS cholinergic receptor [2] = type: binding; conditions: for Ki ratio (Ki QNB/Ki oxotremorine M): QNB vs oxotremorine M binding; for cholinergic agonist / antagonist / partial agonist classification by Ki ratio: from Ki QNB/Ki oxotremorine M ratio; for Ki: tritiated quinuclidine benzylate, read-out: CNS Cholinergic Receptor Binding Assays Ki (nM) QNB
[3] = test system: HCl-induced writhing in CF1 mice; assay: Analgesic activity, HCl writhing protection in mice; type: in vivo; conditions: Mus musculus, sc, 0.25 h, read-out: CNS Id (ED50 mg/kg) HCl Writh. Protect
Method: For determination of analgesic activity, the test compound was injected subcutaneously into a group of four CF1 mice. Thirty minutes later the mice were injected i.p. with 0.15% HCl, 10 ml./kg. Mice are then placed in plastic boxes and observed for fifteen minutes to record the number of animals failing to writhe.

[4] = test system: oxotremorine-induced body tremor in mice; assay: Oxotremorine antagonist assay (body tremor) in mice; type: in vivo; conditions: Mus musculus, ip, read-out: Oxot. Antagonist Tremor (ED50)
Method: Oxotremorine antagonist assays were performed on groups of six mice weighing 18-22 g. Each was dosed intraperitoneally with the test compound prepared in 0.25% methylcellulose and were placed in individual cages. Twenty minutes later the mice were injected subcutaneously with 0.5 mg/kg of oxotremorine dissolved in saline. Ten minutes later the mice were scored for body tremor. Doses of the compound under study began at 100 mg/kg and were decreased at a 0.5 log interval until no responders were obtained.

[5] = test system: scopolamine-induced amnesia in mice; assay: Antagonism of amnesia produced by scopolamine, one trial step through passive avoidance; type: in vivo, mouse; conditions: i.p. test compound, scopolamine hydrobromide 1 mg/kg s.c.; retention 24 hrs
From the text: For antagonism of amnesia produced by scopolamine a one trial, step through passive avoidance paradigm was used. In this procedure a mouse was placed on a square platform adjoining darkened chamber. The mouse could enter the chamber through a hole above the platform. Following placement on the platform, the mouse was enclosed by a clear plexiglas cover which mildly restricted movement, limiting the animal to turning around and partial rearing. A sliding door was opened after this, exposing the entrance to the chamber. A timer was started at the same time the door was opened, in order to record latency to enter the chamber. Upon complete entry into the darkened box, the door was closed behind the mouse and a 1 mA, 2 sec, direct current shock applied to the feet of the mouse through the grid floor. The mouse was immediately removed from the chamber and returned to a 24 hr group holding cage.
Drug testing involved intraperitoneal injection of the test compound followed 15 min later by subcutaneous injection of 1 mg/kg scopolamine hydrobromide. […] The latency for each mouse to enter the chamber was recorded, with a cut-off at 180 sec.
Median group latencies to enter the chamber during both training and testing were recorded and a Wilcoxon rank sum test applied to data comparing the parallel "scopolamine only" group with all drug combination groups on testing. […]

[6] = U.S. Pat. No. 3,925,411; cited from earlier work
laboratory animals = conditions: by a cholinergic mechanism at extremely low doses; cited from earlier work
[7] = s.c. test compound, 30 min before 0.15% HCl i.p., CF1 mice
[8] = i.p. test compound, 20 min before oxotremorine 0.5 mg/kg s.c., mice

| SMILES | Ki (CNS cholinergic receptor [1]) | Ki ratio (Ki QNB/Ki oxotremorine M) (CNS cholinergic receptor [2]) | cholinergic agonist / antagonist / partial agonist classification by Ki ratio (CNS cholinergic receptor [2]) | Ki (CNS cholinergic receptor [2]) | ED50 [3, 7] [mg/kg] | ED50 [4] [mg/kg] | ED50 [4, 8] [mg/kg] | ED50 [3] [mg/kg] | antagonism of amnesia produced by scopolamine [5] | half life compared with prior oxotremorine compounds [6] | tremors and spasticity in laboratory animals (laboratory animals) |
| --- | --- | --- | --- | --- | --- | --- | --- | --- | --- | --- | --- |
| O=C1CCCN1CC#CCn1ccnc1 [Compound 1, 1-[4-(1H-Imidazol-1-yl)-2-butynyl]-2-pyrrolidinone] | 1.3 nM | > 100 | cholinergic agonists | 600 nM | 0.4 | > 100 |  |  |  |  |  |
| Cc1nccn1CC#CCN1CCCC1=O [Compound 2, 1-[4-(2-Methyl-1H-imidazol-1-yl)-2-butynyl]-2-pyrrolidinone] | 0.3 nM | < 10 | cholinergic antagonists | 3.8 nM | 0.1 |  | > 100 |  |  |  |  |
| Cc1cncn1CC#CCN1CCCC1=O [Compound 3, 1-[4-(5-Methyl-1H-imidazol-1-yl)-2-butynyl]-2-pyrrolidinone] | 3.2 nM and 3.3 nM | intermediate Ki ratios | cholinergic partial agonists | 64 nM and 79.8 nM | 2.6 |  |  |  |  |  |  |
| Cc1cn(CC#CCN2CCCC2=O)c(C)n1 [Compound 4, 1-[4-(2,4-Dimethyl-1H-imidazol-1-yl)-2-butynyl]-2-pyrrolidinone] | 68 nM |  |  | 160 nM |  |  | 54 | > 50 |  |  |  |
| CC1CCC(=O)N1CC#CCn1ccnc1 (centres unmarked) [Compound 5, 1-[4-(1H-Imidazol-1-yl)-2-butynyl]-5-methyl-2-pyrrolidinone] | 23 nM |  |  | 171 nM | > 50 |  | 20.9 |  |  |  |  |
| CC(C#CCn1ccnc1)N1CCCC1=O (centres unmarked) [Compound 6, 1-[4-(1H-Imidazol-1-yl)-1-methyl-2-butynyl]-2-pyrrolidinone] | 33.5 nM |  |  | 566 nM | > 50 |  | 45 |  |  |  |  |
| CCc1nccn1CC#CCN1CCCC1=O [Compound 7, 1-[4-(2-Ethyl-1H-imidazol-1yl)-2-butynyl]-2-pyrrolidinone] | 29.1 nM |  |  | 56.9 nM | > 50 |  | 9.7 |  |  |  |  |
| CC(=O)N(C)C(C)C#CCn1ccnc1 (centres unmarked) [Compound 14, N-[4-(1H-Imidazol-1-yl)-1-methyl-2-butynyl]-N-methylacetamide] | 12 nM |  |  | 1500 nM | 0.9 |  | > 100 |  |  |  |  |
| CC(=O)N(C)C(C)C#CCn1ccnc1C (centres unmarked) [Compound 15, N-[4-(2-Methyl-1H-imidazol-1-yl)-1-methyl-2-butynyl]-N-methylacetamide] | 1.6 nM |  |  | 19 nM | > 50 |  | 11.8 |  | most active |  |  |
| CC(=O)N(C)C(C)C#CCn1cnc(C)c1C (centres unmarked) [Compound 16, N-[4-(4,5-Dimethyl-1H-imidazol-1-yl)-1-methyl-2-butynyl]-N-methylacetamide] | 42 nM |  |  | 79 nM | > 50 |  | 25.4 |  |  |  |  |
| CC(=O)N(C)C(C)C#CCn1cc(C)nc1C (centres unmarked) [Compound 17, N-[4-(2,4-Dimethyl-1H-imidazol-1-yl)-1-methyl-2-butynyl]-N-methylacetamide] | 130 nM |  |  | 180 nM | > 50 |  | 80 |  |  |  |  |
| CN(C)C(=O)N(C)CC#CCn1ccnc1 [Compound 24, [4-(1H-Imidazol-1-yl)-2-butynyl]trimethyl urea] | 34 nM |  |  |  |  |  | > 100 |  | most active |  |  |
| CCN(CC)CC#CCn1ccnc1 [Compound 31, N,N-Diethyl-4-(1H-Imidazol-1-yl)-2-butyn-1-amine] | 10000 nM |  |  |  |  | > 100 |  | > 50 |  |  |  |
| O=C1CCCN1CCC#CCN1CCCC1 [N-(5-pyrrolidino-3-pentynyl)-pyrrolidin-2-one] |  |  |  |  |  |  |  |  |  | increased half life |  |
| O=C1CCCN1CC#CCN1CCCC1 [Oxotremorine, N-(4-pyrrolidino-2-butynyl)-pyrrolidin-2-one, reference compound] | 0.4 nM and 0.5 nM |  |  | 220 nM |  | 0.11 |  | 0.025 |  |  | induces tremors and spasticity in laboratory animals |

Source: US5100909A, “Acetylenic imidazoles having central nervous system activity” (The Upjohn Company, priority 1991, dated 1992)
